For assay [1], the target named is T1, YtvA (Bacillus subtilis, UniProt O34627, M1G).
T1 construct: gene pfyP; full-length YtvA (Met1 replaced by Gly)
Put plainly: ITC; also 1H-15N TROSY/HSQC, STD and WaterLOGSY NMR, fluorescence. It is filed as binding.

Assay [2] deals with T2, YtvA (Bacillus subtilis, UniProt O34627, M1G).
T2 construct: gene pfyP; full-length YtvA and isolated STAS domain (amino acids 148–261)
T2 sequence (O34627 1-261 M1G): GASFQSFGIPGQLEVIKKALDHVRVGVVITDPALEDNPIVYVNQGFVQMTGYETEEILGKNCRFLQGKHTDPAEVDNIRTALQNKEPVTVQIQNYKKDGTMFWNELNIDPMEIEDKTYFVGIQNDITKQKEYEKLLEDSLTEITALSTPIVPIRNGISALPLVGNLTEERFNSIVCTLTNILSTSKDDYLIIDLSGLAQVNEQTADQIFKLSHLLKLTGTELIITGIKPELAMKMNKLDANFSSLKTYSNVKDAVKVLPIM
Nature of the assay: fluorescence enhancement on adding protein ([…] YtvA, […] dye). The assay is classed as binding.

A word on the Kd: it is the free concentration of one partner at which half of the binding sites on the other are occupied at equilibrium, for simple one-to-one binding. Low values mean a tighter complex, high ones a looser complex.

`Nc1nc2c(ncn2[C@@H]2O[C@H](COP(=O)(O)OP(=O)(O)OP(=O)(O)O)[C@@H](O)[C@H]2OC(=O)NCCNC(=O)COc2ccc(C3=[N+]4C(=Cc5ccc(-c6cccs6)n5[B-]4(F)F)C=C3)cc2)c(=O)[nH]1` [BODIPY-GTP] returned a Kd on YtvA [1] of 2500 nM.

As to `COC(=O)COc1ccc(-c2ccc3n2[B-](F)(F)[N+]2=C(c4cccs4)C=CC2=C3)cc1` [BODIPY methyl ester], on YtvA [2], the “fluorescence enhancement on adding protein (12 μM YtvA, 2.2 μM dye)” value is given as “This suggests that only the fluorophore is binding to the protein but the GTP part does not”.

The record behind these values is publication PMC3256143, “Blue News Update: BODIPY-GTP Binds to the Blue-Light Receptor YtvA While GTP Does Not” (PLoS ONE, 2012).
